According to US11505533B2, “Metabolically stable N-acylaminooxadiazoles useful as antibacterial agents” (MICROBIOTIX, INC., priority 2017, dated 2022):

Tests used:
Potassium Channel hERG = Potassium Channel hERG (Homo sapiens, UniProt Q12809); conditions: 10 µM
CYP450, 2C19 = CYP450, 2C19 (Homo sapiens, UniProt P33261); conditions: 10 µM
CYP450, 3A4 = CYP450, 3A4 (Homo sapiens, UniProt P08684); conditions: 10 µM
CYP2D6 = CYP2D6 (Homo sapiens, UniProt P10635)
Chain of CYP2D6 (P10635 whole entry): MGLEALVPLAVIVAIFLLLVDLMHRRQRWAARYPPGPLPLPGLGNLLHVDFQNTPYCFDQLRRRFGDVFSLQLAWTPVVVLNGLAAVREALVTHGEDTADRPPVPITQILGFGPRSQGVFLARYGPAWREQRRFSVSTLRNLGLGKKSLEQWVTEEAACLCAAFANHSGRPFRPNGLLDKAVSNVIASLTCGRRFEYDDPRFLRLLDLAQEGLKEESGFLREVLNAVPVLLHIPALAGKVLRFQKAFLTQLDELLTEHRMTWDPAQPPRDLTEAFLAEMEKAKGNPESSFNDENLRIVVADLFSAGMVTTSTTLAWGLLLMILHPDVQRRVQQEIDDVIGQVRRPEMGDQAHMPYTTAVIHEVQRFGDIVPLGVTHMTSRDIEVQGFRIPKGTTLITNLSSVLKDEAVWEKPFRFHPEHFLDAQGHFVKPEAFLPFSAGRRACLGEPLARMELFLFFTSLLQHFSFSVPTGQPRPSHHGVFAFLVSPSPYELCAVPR

Chain of Potassium Channel hERG (Q12809 whole entry): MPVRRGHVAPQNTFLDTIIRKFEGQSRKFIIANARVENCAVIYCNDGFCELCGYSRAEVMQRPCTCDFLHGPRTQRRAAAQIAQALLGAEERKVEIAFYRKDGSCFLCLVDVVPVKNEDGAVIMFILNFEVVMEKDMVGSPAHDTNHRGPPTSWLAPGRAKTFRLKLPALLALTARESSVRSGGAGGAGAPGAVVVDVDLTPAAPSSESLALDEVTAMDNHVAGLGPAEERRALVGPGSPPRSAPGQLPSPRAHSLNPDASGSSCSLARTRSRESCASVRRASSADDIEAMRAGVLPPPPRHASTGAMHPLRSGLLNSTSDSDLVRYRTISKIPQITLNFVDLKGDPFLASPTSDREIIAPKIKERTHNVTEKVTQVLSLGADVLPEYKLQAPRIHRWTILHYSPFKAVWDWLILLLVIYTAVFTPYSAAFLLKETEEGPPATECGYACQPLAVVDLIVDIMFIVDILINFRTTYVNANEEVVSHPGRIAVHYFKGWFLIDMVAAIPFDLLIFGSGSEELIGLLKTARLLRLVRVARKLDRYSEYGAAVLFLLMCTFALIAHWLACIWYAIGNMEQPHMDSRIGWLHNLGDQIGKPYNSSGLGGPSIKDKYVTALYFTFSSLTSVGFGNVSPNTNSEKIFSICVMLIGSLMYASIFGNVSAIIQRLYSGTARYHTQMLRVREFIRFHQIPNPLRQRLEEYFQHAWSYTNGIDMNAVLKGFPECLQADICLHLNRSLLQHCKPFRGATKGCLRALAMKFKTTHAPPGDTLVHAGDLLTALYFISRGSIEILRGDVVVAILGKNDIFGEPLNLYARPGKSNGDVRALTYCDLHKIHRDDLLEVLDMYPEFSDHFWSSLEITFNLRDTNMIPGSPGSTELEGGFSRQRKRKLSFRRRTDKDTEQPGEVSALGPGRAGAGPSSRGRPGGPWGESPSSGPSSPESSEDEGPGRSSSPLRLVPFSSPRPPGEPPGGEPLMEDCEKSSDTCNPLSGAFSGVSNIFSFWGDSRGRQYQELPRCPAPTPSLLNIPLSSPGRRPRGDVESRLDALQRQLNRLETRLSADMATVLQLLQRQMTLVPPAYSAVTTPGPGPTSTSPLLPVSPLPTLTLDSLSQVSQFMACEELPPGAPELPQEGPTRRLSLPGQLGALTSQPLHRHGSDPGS
Chain of CYP450, 3A4 (P08684 whole entry): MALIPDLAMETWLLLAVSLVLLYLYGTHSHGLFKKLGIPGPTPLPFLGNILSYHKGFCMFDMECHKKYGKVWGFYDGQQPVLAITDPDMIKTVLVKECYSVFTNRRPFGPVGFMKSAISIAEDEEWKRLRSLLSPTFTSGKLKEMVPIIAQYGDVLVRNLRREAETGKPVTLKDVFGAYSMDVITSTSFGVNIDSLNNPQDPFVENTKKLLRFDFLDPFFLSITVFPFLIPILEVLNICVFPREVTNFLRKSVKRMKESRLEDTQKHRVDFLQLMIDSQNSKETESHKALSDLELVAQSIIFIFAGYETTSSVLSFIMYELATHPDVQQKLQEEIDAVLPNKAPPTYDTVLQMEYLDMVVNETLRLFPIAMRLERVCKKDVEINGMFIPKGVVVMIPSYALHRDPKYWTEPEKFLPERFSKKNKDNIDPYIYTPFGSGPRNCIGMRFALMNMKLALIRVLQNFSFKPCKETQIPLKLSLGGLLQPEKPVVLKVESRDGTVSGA
Chain of CYP450, 2C19 (P33261 whole entry): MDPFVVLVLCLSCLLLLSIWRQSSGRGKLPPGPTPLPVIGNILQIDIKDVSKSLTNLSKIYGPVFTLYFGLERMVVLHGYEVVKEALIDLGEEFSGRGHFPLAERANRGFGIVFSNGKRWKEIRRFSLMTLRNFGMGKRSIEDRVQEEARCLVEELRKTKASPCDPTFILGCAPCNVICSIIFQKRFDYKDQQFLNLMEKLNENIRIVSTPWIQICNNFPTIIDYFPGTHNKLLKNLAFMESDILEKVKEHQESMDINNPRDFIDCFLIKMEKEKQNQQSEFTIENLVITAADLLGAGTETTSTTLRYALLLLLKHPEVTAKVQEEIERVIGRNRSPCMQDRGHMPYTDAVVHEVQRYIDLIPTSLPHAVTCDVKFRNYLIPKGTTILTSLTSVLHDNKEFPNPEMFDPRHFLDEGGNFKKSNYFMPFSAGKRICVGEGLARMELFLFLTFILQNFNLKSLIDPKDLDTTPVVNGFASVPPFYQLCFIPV

Structure (SMILES) | % Inhibition (Potassium Channel hERG) [%] | % Inhibition (CYP450, 2C19) [%] | % Inhibition (CYP450, 3A4) [%] | inhibition at 10 µM (CYP2D6) [%]
O=C(Nc1nnc(-c2ccc(F)cc2)o1)N1CCc2ccccc2C1 [MBX-4132] | 64 | 44 | 7 | –
O=C(Nc1nnc(-c2ccc(F)cc2)o1)c1ccc(Oc2ccccc2)nc1 [MBX-4237] | – | – | – | -4
